Data as given in a melting point compilation (Tetko et al.; mined from patent text by program, amines drawn as free bases though some values may be those of a salt).

| melting point [°C] | Structure (SMILES) |
| --- | --- |
| 99 to 100 | CCn1c(CO)nc(C(C)C)c1Sc1cccc(Cl)c1 |
| 100 to 101 | Cc1oc(-c2ccco2)nc1COc1cccc(CO)c1 |
| 127 to 129 | CCCCCC(=O)N1c2ccccc2NC(=O)c2cscc21 |
| 245 to 248 | CC(=O)Nc1ccc(-c2ccc3nc(-c4cccnc4N)n(-c4ccc(CN)cc4)c3n2)cc1 |
| 179 to 180 | CCCN=C(N)Nc1ccnc(S(C)=O)n1 (configuration not stated) |
| 175 to 177 | O=C(O)c1cc(Cl)c(Cl)c2c1OCC(CO)O2 (configuration not stated) |
| 190 to 192 | COc1cc2ncc(N[C@@H]3C[C@@H]4C[C@H]3C[C@H]4O)nc2cc1OC |
| 137 to 138 | NCCCCN1C(=O)NC(c2ccccc2)(c2ccccc2)C1=O |
| 164 to 165 | O=C(O)/C=C/c1ccc(C(=C2CCCCCC2)c2ccc(O)c(F)c2)cc1 |
| 104 to 106 | c1ccc2c(c1)N=C(C1CCCCC1)c1cccc3c1N2CC3 |
| 117 to 119 | CC(C)OC(=O)c1cc(NC(=O)c2ccccc2)c(F)cc1Cl |
| 117 to 118 | O=C(Nc1cccc(C(F)(F)F)c1)c1cccnc1Cl |
| 101 to 104 | Cc1ccc2nc([C@@H](C)NC(=O)OC(C)(C)C)sc2c1 |
| 105 to 106 | CCOc1c(C(=O)OCC(C)(C)C(=O)C(C)(C)C)oc2ccc(OC)cc12 |
| 116 to 117 | CC(C)(C)OC(=O)N[C@H](CO)C(=O)OC(c1ccccc1)c1ccccc1 |
| 232 | Cc1cc(-c2cnn3c(C(F)(F)F)cc(-c4cccc(C(F)(F)F)c4)nc23)ccn1 |
| 109 to 111 | Cc1nc(-c2ccc(C#N)cc2)oc1C(=O)NCCCCN1CCC(c2ccc3c(c2OCCO)CCCC3)CC1 |
| 244 to 245 | NC(=O)Cc1cccc2c(=O)cc(C3=CCCCC3)oc12 |
| 149 to 151 | O=C(NCCO)/C(=C/c1ccc(OCC(F)F)cc1)NC(=O)c1ccc(OCCCC2CC2)cc1 |
| 115 | CC(C)(Cc1ccccc1)C(O)CCN1C(=O)NC(=O)C1CCCCCCC(=O)O (configuration not stated) |
| 138 | C=COCCN1CCC(Nc2nc3ccccc3n2Cc2ccc(F)cc2)CC1 |
| 225 to 227 | CCn1c(C(O)(c2cccc(F)c2)c2cccc(F)c2)nc(-c2ccncc2)c1-c1ccc(Cl)cc1 |
| 231 to 233 | Nc1ncnc2c1ncn2Cc1oc2ccc(Br)cc2c(=O)c1-c1ccccc1F |

| melting point [°C] | Structure (SMILES) |
| --- | --- |
| 174 to 175 | C[C@@H](NC(=O)c1csc(-c2ccccc2)n1)[C@](O)(Cn1cncn1)c1ccc(F)cc1F |
| 232 | NC(=O)c1c(Cl)c(-c2ccccc2)n2c1CN(C(=O)c1ccc(-c3ccccn3)s1)CC2 |
| 172 to 173 | O=C(Nc1cc(Cl)ccc1O)Nc1cc(C(F)(F)F)ccc1Cl |
| 125 to 127 | Cc1ccc(Cl)cc1C1CC(=O)c2c(C)ccnc2C1 (configuration not stated) |
| 157 to 158 | OC1CCN(C(c2ccccc2)(c2ccccc2)c2ccccc2)CC1 |
| 62 to 64 | O=P(CN(O)Cc1ccccc1)(OCc1ccccc1)OCc1ccccc1 |
| 206 to 208 | OC1CSC(Oc2cncc(-c3ccccc3F)c2)C(O)C1O (configuration not stated) |
| 220 to 221 | Cc1c(S(C)(=O)=O)cc(C(C)(C)C)c(O)c1C(=O)Nc1ccc(S(=O)(=O)C(F)(F)F)cc1Cl |
| > 230 | CSc1nn2c(N)cc(C)nc2c1S(=O)(=O)c1ccccc1 |
| > 300 | CC(=O)c1ccc2c(c1)C1(c3cc(C(C)=O)ccc3-2)c2cc(C(C)=O)ccc2-c2ccc(C(C)=O)cc21 |
| 208 to 209 | O=C(O)Cc1cc(=O)n(Cc2ccc(Cl)cc2)c2ccccc12 |
| 176 to 177 | O=c1nc(-c2ccccn2)sc2cc(C(F)(F)F)ccc12 |
| 196 to 198 | CC(=O)CN1CCc2c(c(=O)oc3cc(C)c(N)cc23)C1 |
| 142 to 144 | CCOC(=O)C=C(C)NC(=O)Nc1cc(OC(C)C)c(Cl)cc1F |
| 187 to 189 | CCNS(=O)(=O)/C=C/C1=C(C)NC(C)=C(C(=O)OC(C)C)C1c1cccc([N+](=O)[O-])c1 (configuration not stated) |
| 181 to 185 | COc1ccc2c(c1)c1c(n2C(=O)c2ccc(Cl)cc2)CCCC1C(=O)O (configuration not stated) |
| 110 to 112 | CC(C)c1ccc(N(Cc2ccc(N(C)C)cc2)C(=O)C2CCOc3ccccc32)cc1 (configuration not stated) |
| 114 to 116 | COc1cc(OC)c2c(=O)[nH]c(-c3ccc(OCCN(C(=O)OC(C)(C)C)C(C)C)c(-c4ccc(S(C)=O)cc4)n3)nc2c1 (configuration not stated) |
| 86 to 87 | CCC1(CC)NC(=O)N(c2ccc(Cl)c(C(F)(F)F)c2)C1=O |
| 183 to 185 | CNC1(c2ccccc2Cl)C(=O)N(S(=O)(=O)c2ccc(OC)cc2OC)c2c(F)cc(Cl)cc21 (configuration not stated) |
| 164 to 165 | O=C1c2ccccc2C(=O)N1CC#CC1=CCN=C(c2ccccc2F)c2cc(Cl)ccc21 |
| 170 to 172 | Nc1nc(C(=NOCC(=O)NOCc2ccccc2)C(=O)O)cs1 |
| 84 to 87 | C[C@@H](n1cnc2cc(Sc3ccccc3)ccc2c1=O)[C@](O)(Cn1cncn1)c1ccc(F)cc1F |

| melting point [°C] | Structure (SMILES) |
| --- | --- |
| 238 to 240 | Cc1nn(C)c2c(O)nc(C3CC3)nc12 |
| 63 to 73 | CCCCNS(=O)(=O)C[C@@H](O)C(O)[C@@H](CC1CCCCC1)NC(=O)[C@H](CC(C)C)NC(=O)CCc1ccccc1 (relative stereo) |
| 128 to 129 | CC(=O)Oc1ccc2c(c1)CCC1C2CCC2(C)C(OC(C)=O)CCC12 (configuration not stated) |
| 122 to 124 | COC(=O)c1c[nH]c(Sc2ccc(Cl)cc2)c1 |
| > 250 | O=c1[nH]c2cc(C(F)(F)F)c(C(F)(F)F)cc2[nH]c1=O |
| 105 | Cc1c(CC(=O)NCCCO)cc(-c2ccc(S(C)(=O)=O)cc2)n1-c1ccc(F)cc1 |
| 141 to 142 | CCN(CC)CCNC(=O)N1CCCC(S(=O)(=O)c2ccc(Cl)cc2)C1 (configuration not stated) |
| 147 to 148 | O=C(Nc1ccccc1I)c1ccccc1 |
| 54 to 57 | CC(=O)c1ccc(Sc2cccc(Br)c2)cc1 |
| 98 to 99 | COC(=O)COc1ccc([N+](=O)[O-])cc1 |
| 210 to 212 | CN(N=Cc1ccc(Br)cc1)C(=O)c1[nH]c2ccccc2c1-c1ccccc1 |
| 262 | Cn1c(=O)cc(-c2cccc(Cl)c2)c2cc(C(O)(c3ccc(Cl)cc3)c3cnccc3N)ccc21 (configuration not stated) |
| 112 to 113 | CCOC1CCC(=O)N1S(=O)(=O)c1ccc(OC)cc1 (configuration not stated) |
| 148 to 150 | CCOC(=O)C(Cc1ccccc1)NC(=O)COc1ccc(C2=NNC(=O)NC2)cc1 (configuration not stated) |
| 175 to 176 | c1ccc2c(c1)Cc1c(-c3ccc(OCCN4CCOCC4)cc3)n[nH]c1-2 |
| 242 to 246 | O=C(O)c1ccc(Cl)c(S(=O)(=O)c2ccccc2[N+](=O)[O-])c1 |
| 242 to 243 | O=C(NC1CC1)c1[nH]c2ccc(Cl)cc2c1S(=O)(=O)c1ccccc1 |
| 234 to 236 | COC(=O)Nc1nc2cc(C)[nH]c2c(=O)[nH]1 |
| 166 | CC(=O)OC1CSC(Oc2cncc(-c3cccs3)c2)C(OC(C)=O)C1OC(C)=O (configuration not stated) |
| 176 to 178 | N=C(NO)C1C=Cc2ccccc2N1C(=O)c1ccccc1 (configuration not stated) |
| 191 to 192 | O=C(O)c1cc(S)cc2c1OCCO2 |
| 91 to 92 | CN(CCN1CCOCC1)c1noc2cc(O)ccc12 |
| 230 to 232 | CCOC(=O)CN1CCN(c2cc3c(cc2Cl)c(=O)c(C(=O)O)cn3CC)CC1 |

| melting point [°C] | Structure (SMILES) |
| --- | --- |
| 275 | Cc1cc(-c2ccc(Cl)cc2)nc(-n2cnc(-c3cccc(S(N)(=O)=O)c3)c2)n1 |
| 103 to 104 | CCOC(=O)C1=C(COCC2CO2)NC(C)=C(C(=O)OC)C1c1cccc(Cl)c1Cl (configuration not stated) |
| 216 to 218 | NNc1nccc2nc(-c3ccccc3)nn12 |
| 41.2 | FC(F)(F)Oc1ccc(C2CCC3(CC2)OCCO3)cc1 |
| 162 to 163 | CCCCCCCCCCCCCCCCn1c(-c2ccc(Cl)c(N)c2)nc2ccccc21 |
| 212 to 213 | CN1CCN(c2ccc(Nc3ncc4ccc(-c5cccc6c5OCCO6)n4n3)cc2)CC1 |
| 143 to 144 | O=C(O)CCCCc1cc2ccccc2n1-c1cccnc1 |
| 268 to 269 | CN1C(C(=O)Nc2cccc(Br)c2)=C(O)c2ccc3ccccc3c2S1(=O)=O |
| 130 | C=CCN1C(=O)CN(c2ccc(OCc3ccccc3)cc2)C1=S |
| 231 to 233 | CC(C)CCn1cc(C(=O)c2ccccc2)c(=O)c2cn(C)nc21 |
| > 300 | O=C(O)c1cn(-c2ccc(F)cc2)c2c(F)c(N3Cc4cccc(O)c4C3)c(F)cc2c1=O |
| 75 to 78 | CC(C)c1ccc(S(=O)(=O)Nc2ccc(N3CCC(NCC(O)COc4ccc(O)cc4)CC3)nc2)cc1 (configuration not stated) |
| 168 to 170 | Cc1nnc2cccc(-c3ccccn3)n12 |
| 125 to 127 | Cc1ccc(O[C@@H]2CCNC[C@H]2O)cc1C (relative stereo) |
| 163 to 165 | CCCN1CC(c2ccc(S(C)(=O)=O)cc2)=C(Oc2ccccc2)C1=O |
| 196 to 197 | CCOC(=O)C=Cc1ccc(C(=O)O)cc1 |
| 145 to 147 | Cc1cc(Oc2c([N+](=O)[O-])cc([N+](=O)[O-])cc2C(F)(F)F)n[nH]1 |
| 220 to 221 | CSc1ncc(Cc2cnc3ccccc3c2)c(=O)[nH]1 |
| 210 to 212 | Cc1cn(C)c2c1N(C(=O)CN1CCCC1)c1ccccc1NC2=O |
| 221 to 222 | CC1C2=C(CN=C(c3ccccc3Cl)c3cc(Cl)ccc32)C(=O)N1CC(N)=O (configuration not stated) |

| Structure (SMILES) | melting point [°C] |
| --- | --- |
| O=[N+]([O-])C(F)(CO)CO | 86 to 87 |
| CC(C)(C)OC(=O)c1ncn2c1[C@@H]1CCCN1C(=O)c1c-2cccc1[N+](=O)[O-] | 231 to 233 |
| CCCCCCc1cc2c(s1)-n1c(C)nnc1CN=C2c1cccc(C)c1 | 57 to 59 |
| c1ccc(CCN2CCC(Nc3nc4ccccc4n3CCc3cccs3)CC2)cc1 | 118 |
| CC(=O)C(C#N)c1ccc(F)c(Cl)c1 (configuration not stated) | 133 to 134 |
| COC(=O)c1nc(CCl)n(-c2ccc(Cl)cc2C(=O)c2ccccc2Cl)n1 | 130 to 132 |
| O=S1(=O)c2cccc3cccc(c23)N1CCCN1CC=C(c2c[nH]c3ccc(O)cc23)CC1 | 214 |
| Cc1cc(NC(=O)C(C)(O)COc2cc(F)cc(F)c2)ccc1[N+](=O)[O-] (configuration not stated) | 104 to 106 |
